Earlier results in patent US20150038447A1, “ORGAN PROTECTION, PRESERVATION AND RECOVERY” (Hibernation Therapeutics, A KF LLC, priority 2007, published 2015).

Columns and labels:
human NK(1) receptor = human NK(1) receptor (Homo sapiens, UniProt P25103)
NK(3) receptor = molecular target: T1, NK(3) receptor (Homo sapiens, UniProt P29371); details: NK(1) versus NK(3)
T1 sequence (P29371 1-465): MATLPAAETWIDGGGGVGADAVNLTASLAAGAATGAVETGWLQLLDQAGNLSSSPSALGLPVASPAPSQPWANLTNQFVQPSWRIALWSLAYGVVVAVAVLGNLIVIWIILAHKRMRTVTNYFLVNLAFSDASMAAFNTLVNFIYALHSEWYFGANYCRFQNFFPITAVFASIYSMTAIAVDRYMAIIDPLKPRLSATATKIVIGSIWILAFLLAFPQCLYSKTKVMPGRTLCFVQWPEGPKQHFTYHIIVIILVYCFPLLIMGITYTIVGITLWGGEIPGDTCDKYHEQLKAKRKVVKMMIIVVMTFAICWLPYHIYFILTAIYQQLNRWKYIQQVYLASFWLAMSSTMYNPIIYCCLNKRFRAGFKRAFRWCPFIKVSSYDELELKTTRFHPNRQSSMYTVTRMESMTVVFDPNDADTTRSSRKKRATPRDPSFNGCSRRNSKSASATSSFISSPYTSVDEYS

NK(2) receptor = molecular target: T2, NK(2) receptor (Homo sapiens, UniProt P21452); details: NK(1) versus NK(2)
T2 sequence (P21452 1-398): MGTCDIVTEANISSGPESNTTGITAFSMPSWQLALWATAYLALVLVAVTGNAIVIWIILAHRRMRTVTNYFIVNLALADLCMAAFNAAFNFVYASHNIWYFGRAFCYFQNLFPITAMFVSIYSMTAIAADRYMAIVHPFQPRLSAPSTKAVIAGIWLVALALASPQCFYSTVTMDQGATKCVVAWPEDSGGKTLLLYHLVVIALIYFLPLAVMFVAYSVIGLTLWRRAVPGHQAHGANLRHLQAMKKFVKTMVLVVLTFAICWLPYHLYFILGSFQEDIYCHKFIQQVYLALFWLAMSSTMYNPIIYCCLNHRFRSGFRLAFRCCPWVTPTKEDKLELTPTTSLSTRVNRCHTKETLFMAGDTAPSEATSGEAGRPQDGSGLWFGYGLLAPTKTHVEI

[1] = given orally and/or intravenous at 10, 25, 50, and 100 mg/kg body weight
adenosine deaminase = molecular target: T3, adenosine deaminase (Bos taurus, UniProt P56658); details: calf intestinal mucosa; read-out: Ki (competitive inhibitor of adenosine deaminase)
T3 construct: from tissue; host or cells: calf intestinal mucosa

[2] = 400 mg daily tablets
[3] = in vivo
anaesthetised rats = details: previous studies (Canyon and Dobson, 2004)

T3 sequence (P56658 whole entry): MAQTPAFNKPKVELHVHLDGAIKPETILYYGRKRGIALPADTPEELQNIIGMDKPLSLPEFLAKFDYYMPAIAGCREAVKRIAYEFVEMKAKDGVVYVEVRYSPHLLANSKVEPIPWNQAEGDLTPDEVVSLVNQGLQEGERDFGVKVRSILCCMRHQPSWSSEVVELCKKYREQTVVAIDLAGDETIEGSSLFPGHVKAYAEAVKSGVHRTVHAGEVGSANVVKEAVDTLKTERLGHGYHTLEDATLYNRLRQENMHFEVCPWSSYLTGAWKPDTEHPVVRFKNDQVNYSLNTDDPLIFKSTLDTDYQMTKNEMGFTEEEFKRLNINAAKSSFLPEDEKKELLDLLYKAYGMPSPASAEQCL
human NK(1) receptor, sequence (P25103 whole entry): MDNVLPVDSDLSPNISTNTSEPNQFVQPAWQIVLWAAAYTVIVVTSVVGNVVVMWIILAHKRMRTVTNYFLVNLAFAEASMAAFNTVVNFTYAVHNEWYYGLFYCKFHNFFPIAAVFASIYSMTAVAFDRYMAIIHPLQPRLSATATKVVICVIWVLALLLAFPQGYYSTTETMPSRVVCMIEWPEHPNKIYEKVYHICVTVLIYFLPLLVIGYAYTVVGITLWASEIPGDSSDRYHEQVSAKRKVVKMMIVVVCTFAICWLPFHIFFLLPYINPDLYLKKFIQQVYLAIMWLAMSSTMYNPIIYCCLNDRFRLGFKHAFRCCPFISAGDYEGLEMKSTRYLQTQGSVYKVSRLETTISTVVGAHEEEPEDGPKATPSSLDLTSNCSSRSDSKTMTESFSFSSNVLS

## Cc1cccc(C)c1NC(=O)C[C@H]1CCN(C(=O)c2cc(C(F)(F)F)cc(C(F)(F)F)c2)[C@@H](Cc2ccccc2)C1.O=C(O)C[C@H](O)C(=O)O (relative stereo) [R116301, (2R-trans)-4-[1-[3,5-bis(trifluoromethyl)benzoyl]-2-(phenylmethyl)-4-piperidinyl]-N-(2,6-dimethylphenyl)-1-acetamide (S)-Hydroxybutanedioate]
Human NK(1) receptor
  Ki: 0.00045 µM
NK(3) receptor
  selectivity toward NK(3) receptor: over 200 fold
NK(2) receptor
  selectivity toward NK(2) receptor: over 200 fold

## NC(=O)c1ncn([C@@H]2O[C@H](CO)[C@@H](O)[C@H]2O)c1N [Acadesine, 5-amino-4-imidazole carboxamide ribonucleoside]
[1]
  safety in humans: safe
Adenosine deaminase
  Ki: 362 µM

## OCCN(CCO)c1nc(N2CCCCC2)c2nc(N(CCO)CCO)nc(N3CCCCC3)c2n1 [Dipyridamole]
[2]
  plasma level: about 0.4 μg/ml
  plasma level (concentration): ~800 nM

## CSCC[C@@H]1NC(=O)[C@H](CC(C)C)NC(=O)[C@H](CCCNC(=N)N)NC(=O)[C@H](CO)NC(=O)[C@@H]2CSSC[C@@H]3NC(=O)[C@H](CO)NC(=O)CNC(=O)[C@H]([C@@H](C)O)NC(=O)[C@H](CSSC[C@H](N)C(=O)N[C@@H](CCCCN)C(=O)NCC(=O)N[C@@H](CCCCN)C(=O)NCC(=O)N[C@@H](C)C(=O)N[C@@H](CCCCN)C(=O)N2)NC(=O)[C@H](CSSC[C@@H](C(N)=O)NC(=O)[C@H](CCCCN)NC(=O)CNC(=O)[C@H](CO)NC(=O)[C@H](CCCNC(=N)N)NC3=O)NC(=O)[C@H](CC(=O)O)NC(=O)[C@H](Cc2ccc(O)cc2)NC1=O [Omega conotoxin MVIIA]
[3]
  potency as an analgesic relative to morphine: 100-1000 fold

## Nc1ncnc2c1ncn2[C@@H]1O[C@H](CO)[C@@H](O)[C@H]1O [adenosine]
other
  half life in the blood: about 10 seconds
Anaesthetised rats
  animals that die during 30 min ischaemia from VF: about 50%
